In data set [1] the test system is ovariectomized (OVx) rats. Nature of the data set: Bone mineral density (BMD) by DEXA after one month of oral administration. Format: in vivo, female Sprague Dawley rats. On the procedure: (§1) The study was conducted in accordance with current legislation on animal experiments [Institutional Animal Ethical Committee (IAEC)] at C.D.R.I. Forty female Sprague Dawley rats weighing 200 g were taken for the study (n=10/group). Thirty rats were bilaterally ovariectomized (OVx). The other 10 rats were exposed to a sham surgical procedure. All rats were individually housed at 21° C., in 12-h/12-h light-dark cycles. Normal chow diet and water was provided ad libitum. The rats were left for 4 weeks to develop osteopenia. The animals were divided into 4 groups Sham, Ovaticetomized group (Ovx), Ovx+Kaempferol (Ovaticetomized group treated with Kaempferol) and Ovx+F (Ovaticetomized group treated with formulation of Kaempferol). Animals were treated for one month then sacrificed and BMD was determined.
BMD was determined by DEXA (Dual Energy X-ray Absorptiometry) using a Hologic QDR 4500A x-ray densitometer with high-resolution small animal software. BMD of the excised bones (left femurs, tibia, and lumbar vertebrae) were studied at the end of experiment. Left femurs were placed on their posterior surfaces, and BMD of the sub-regions was assessed. Distal and proximal regions corresponded to the cancellous bone and central to the cortical bone. Results are given in g/cm^2 as represented in FIG. 5.

The nature of data set [2]: In vitro Kaempferol release in SGF and SIF. Format: physicochemical. As to conditions: SIF compared with SGF. The text has this: For in-vitro release study the ultra sink condition was maintained. Briefly, Dried pure Kaempferol dispersed in PBS, the Kaempferol-loaded CaCO3 MP (CaCO3-Kaempferol) and the encapsulated Kaempferol-loaded microcapsules suspension in same concentration were taken in centrifuge tube in one ml phosphate buffer saline (PBS). Two different pH solutions were used as the release medium [a simulated gastric fluid (SGF) (pH 1.2), prepared by diluting a concentrated HCl solution] and [a simulated intestinal fluid (SIF) (pH 7.4), prepared with 0.02M phosphate buffer saline]. The sample was maintained under horizontal agitation at 37° C. in vortex. At different time intervals the dispersion was centrifuged at 10,000 rpm for 5 min. and the supernatant was assayed for Kaempferol using RP-HPLC method at 370 nm against reagent blank. After each sampling the medium was replaced with fresh buffer. It was also ensured that no extra tiny particles are left in the supernatant.

The nature of another data set: in vivo. To be noted: rat, po, 1 mg/kg. On the procedure:
Kaempferol (free; 1 mg/kg) in 20% ethanol was orally administered by gavage. Following administration, the rats were sacrificed at 0.25, 0.5, 1.0, 1.5, 2.0, 2.5, 3.0, 4.0, 6.0, and 24 h to obtain serum and bone marrow. After protein precipitation, concentration of Kaempferol in serum and bone marrow was determined by HPLC. […] Similarly formulated (LbL based assembly) Kaempferol (equivalent to 1 mg/kg of free Kaempferol) was administered orally using gavage. Following administration, the rats were sacrificed at 0.25, 0.5, 1.0, 1.5, 2.0, 2.5, 3.0, 4.0, 6.0, and 24 h to obtain serum and bone marrow. After protein precipitation concentration of Kaempferol in serum and bone marrow was determined by HPLC. The mean serum pharmacokinetics profile (for the three rats at each time point) of kaempferol on administration of formulation was calculated over 24 h. Rapid absorption of Kaempferol is evident, which appeared to peak after 1 h and can be detected for as long as 24 h post administration.

The next data set has as its system OVx rats. To be noted: cited from earlier work.
Data set [3] concerns ovariectomized (OVx) rats. As to the kind of experiment: Trabecular bone strength, Bone Strength Tester TK-252C. The format is in vivo, female Sprague Dawley rats. As to conditions: one month treatment. On the procedure:
as §1
This test predominantly measured trabecular bone strength using a Bone Strength Tester TK-252C (Muromachi Kikai Co. Ltd., Tokyo, Japan). The bone strength for all the groups was measured as reported in this invention.

Where [4] appears, read: one month oral treatment, excised bone.
Where [5] appears, read: compared with OVx group treated with vehicle.

Usually AUC(0-t) stands for the area under the concentration-time curve up to a stated or last time point. Read a high AUC(0-t) as high exposure. As usually defined, the Tmax is the time at which the peak concentration occurs. A word on the Cmax: it is the peak of the concentration-time curve.

Take `O=c1c(O)c(-c2ccc(O)cc2)oc2cc(O)cc(O)c12` [Kaempferol]: in data set [1] (setting [4]), the “Bone Mineral Density, Femur diaphysis” value was found to be 0.2658 ± 0.01 g/cm^2; the “Bone Mineral Density, Femur global” value is 0.262 ± 0.01 g/cm^2; the “Bone Mineral Density, Tibia Head” value was determined as 0.2835 ± 0.015 g/cm^2; the “Bone Mineral Density, Vertebrae global” value is recorded as 0.1847 ± 0.013 g/cm^2. Besides, the “trabecular BMD over OVx+vehicle group” value in data set [1] (one month treatment) is given as “significantly higher”. Further, the Kaempferol saturation solubility result in data set [2] is listed as “much higher”. In “in vivo”, the AUC(0-t) came to 1420 ng·h/mL, the Tmax came out at 30 min, the “time after which bone marrow level went below the detection limit” value was 2.5 h and the “time after which serum level went below the detection limit” value is 6 h. For the same compound, the “time of Cmax in bone marrow” value in “in vivo” is given as 90 min. The same compound came in with a Cmax in the data set “in vivo” (Cmax of Kaempferol in bone marrow) of 194 ng/mL. Also, in “in vivo” (Cmax of Kaempferol in serum), the highest level (Cmax) was 583 ± 229 ng/mL. Further, in the data set with OVx rats, the bone sparing action entry is “exerts bone sparing action” and the “estrogen agonistic effect at the uterine level” value is on record as “no estrogen agonistic effect”. Further, in the data set on OVx rats (setting [5]), the “adipocyte differentiation from bone marrow cells” value is on record as “inhibition” and the osteoprogenitor cells entry is reported as “increase”. Besides, the “bone biomechanical strength over OVx+vehicle group” value in data set [3] is on record as “significantly higher”. The same compound had a Bone strength in data set [3] (trabecular bone) of 209.4 ± 21.52 N/mm.

These data come from patent US8496964B2, “Controlled release micro-capsule for osteogenic action” (Council of Scientific & Industrial Research, priority 2009, dated 2013).
